The results in this text go back to ChEMBL document CHEMBL1149774, “Synthesis of N-(5,7-diamino-3-phenyl-quinoxalin-2-yl)-3,4,5-substituted anilines and N-[4[(5,7-diamino-3-phenylquinoxalin-2-yl)amino]benzoyl]-l-glutamic acid diethyl ester: evaluation of in vitro anti-cancer and anti-folate activities” (Eur J Med Chem, 2008).

The structures appear in SMILES notation. The source made the active and inactive calls. The rule behind the calls is not given here.

Assay [1] deals with T1, Thymidylate synthase (Lactobacillus casei, UniProt P00469).
T1 sequence (P00469 whole entry): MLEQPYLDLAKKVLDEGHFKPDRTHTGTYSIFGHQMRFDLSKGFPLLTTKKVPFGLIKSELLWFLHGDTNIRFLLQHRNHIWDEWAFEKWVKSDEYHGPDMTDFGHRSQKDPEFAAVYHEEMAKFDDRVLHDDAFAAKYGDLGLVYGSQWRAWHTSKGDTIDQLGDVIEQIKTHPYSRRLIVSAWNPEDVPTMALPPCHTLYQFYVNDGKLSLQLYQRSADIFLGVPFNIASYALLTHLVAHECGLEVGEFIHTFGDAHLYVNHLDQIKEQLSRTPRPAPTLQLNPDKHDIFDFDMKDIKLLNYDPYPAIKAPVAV
Description: Inhibition of Lactobacillus casei thymidylate synthase

Assay [2] concerns the target Thymidylate synthase (Escherichia coli, UniProt C3SWJ7).
Another assay relates to CCRF-CEM. Kind of assay: Growth inhibition of human CCRF-CEM cells after 48 hrs by SRB staining method. The assay is classed as functional.
Assay [3] concerns the target Thymidylate synthase (Escherichia coli) (UniProt C3SWJ7). Kind of assay: Inhibition of Escherichia coli thymidylate synthase at 10 uM.

Chain of Thymidylate synthase (Escherichia coli) (C3SWJ7 1-264): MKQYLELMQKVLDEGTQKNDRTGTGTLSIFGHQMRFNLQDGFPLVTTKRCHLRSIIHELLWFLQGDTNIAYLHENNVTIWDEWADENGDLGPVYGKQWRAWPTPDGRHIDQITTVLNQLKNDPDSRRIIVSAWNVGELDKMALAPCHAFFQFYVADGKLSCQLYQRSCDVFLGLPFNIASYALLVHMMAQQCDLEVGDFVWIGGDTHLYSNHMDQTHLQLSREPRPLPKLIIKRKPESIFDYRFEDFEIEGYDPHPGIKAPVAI
Chain of Thymidylate synthase (Escherichia coli, UniProt C3SWJ7) (C3SWJ7 whole entry): as the sequence (C3SWJ7 1-264) above

What is called Ki is the dissociation constant of the complex between target and ligand, obtained from inhibition or displacement. The low end stands for higher affinity, the high end for lower affinity. As for `COc1ccc(Nc2nc3cc([N+](=O)[O-])cc([N+](=O)[O-])c3nc2-c2ccccc2)cc1OC`, the inhibition constant (Ki) at Thymidylate synthase [1] stood at 24 µM; on Thymidylate synthase [2] it was 1000 nM.

With `CCOC(=O)CCC(NC(=O)c1ccc(Nc2nc3cc([N+](=O)[O-])cc([N+](=O)[O-])c3nc2-c2ccccc2)cc1)C(=O)OCC` (stereo unspecified), the Ki worked out at 36 µM on Thymidylate synthase [1] and 3000 nM on Thymidylate synthase [2].

One may read the GI50 as the concentration at which growth is held to half of that of the control. `CN(Cc1cnc2nc(N)nc(N)c2n1)c1ccc(C(=O)N[C@@H](CCC(=O)O)C(=O)O)cc1` [METHOTREXATE] gave a GI50 in the assay on CCRF-CEM of 39.8 nM.

As for `COc1ccc(Nc2nc3cc([N+](=O)[O-])cc([N+](=O)[O-])c3nc2-c2ccccc2)cc1`, the result in assay [3] was inactive. The compound also registered a Ki at Thymidylate synthase [1] of 8 µM.

Consider `COc1cc(Nc2nc3cc([N+](=O)[O-])cc([N+](=O)[O-])c3nc2-c2ccccc2)cc(OC)c1OC`, for which the outcome in assay [3] was inactive. The compound further registered a Ki on Thymidylate synthase [1] of 11 µM.

For the compound `COc1cc(Nc2nc3cc([N+](=O)[O-])cc([N+](=O)[O-])c3nc2-c2ccccc2)cc(OC)c1`, in assay [3], the outcome was inactive. On Thymidylate synthase [1], this compound showed a Ki of 6 µM.
